Experiment [1] concerns influenza A virus. Briefly: microbe, parasite or virus in culture. The class given is cell-based.
Experiment [2] concerns influenza A virus (A/PR/8/34). Briefly: microbe, parasite or virus in culture. The experiment is classed as cell-based.
Experiment [3] has as its system influenza. Briefly: Influenza Therapeutic Mouse Model. Conditions: Balb/c mice, 30 mg/kg BID × 10 days, dosing @ 48 hours post infection. The experiment is classed as in vivo.
Setting [4] is: Influenza A virus, viral RNA 50% of control wells, 18-36 hours, mean all, read-out: bDNA EC50.
The mark [5] stands for this setting: Influenza A virus, PR/8, MDCK, 72 h, read-out: Flu, MDCK IC50.
Where [6] appears, read: Influenza A virus, bDNA viral RNA assay, read-out: EC50.
The mark [7] stands for this setting: Influenza A virus, PR/8, MDCK, MDCK cells, A/PR/8/34, CPE assay, read-out: IC50.
Setting [8] is: viral RNA 50% of control wells, 18-36 hours, mean all, read-out: bDNA EC50.

20 compounds from patent US20140005197A1, “INHIBITORS OF INFLUENZA VIRUSES REPLICATION” (Vertex Pharmaceuticals Incorporated, priority 2010, published 2014) can be followed below.

Each structure is given as a SMILES string. Like-named read-outs stand apart in the source and are kept apart here.

As usually defined, the EC50 is the midpoint of the concentration-response curve. As a reminder, the IC50 is the concentration needed to halve the response being measured.

Regarding `O=C(O)[C@H]1C2CCC(CC2)[C@@H]1Nc1nc(-c2n[nH]c3ncc(Cl)cc23)c(F)cc1F` (racemic) [Compound I-6, (2S,3S)-3-((6-(5-chloro-1H-pyrazolo[3,4-b]pyridin-3-yl)-3,5-difluoropyridin-2-yl)-amino)bicyclo[2.2.2]octane-2-carboxylate], the EC50 in experiment [1] (setting [4]) was below 3.3 µM. In experiment [2] (setting [5]), the IC50 was below 3.3 µM.

Regarding `O=C(O)[C@H]1C2CCC(CC2)[C@@H]1Nc1cncc(-c2n[nH]c3ncc(F)cc23)n1` (racemic) [Compound I-9, (+/−)-trans-(2,3)-3-((6-(5-fluoro-1H-pyrazolo[3,4-b]pyridin-3-yl)pyrazin-2-yl)amino)bicyclo[2.2.2]octane-2-carboxylic acid], the values for the EC50 in experiment [1] (setting [6]) and in experiment [1] (setting [4]) were 0.034 µM and below 3.3 µM, respectively. In addition, the values for the IC50 in experiment [2] (setting [5]) and in experiment [2] (setting [7]) were below 3.3 µM and 0.017 µM, respectively.

With `N#Cc1cc(F)c(N[C@H]2C3CCC(CC3)[C@@H]2C(=O)O)nc1-c1n[nH]c2ncc(F)cc12` (racemic) [Compound I-12], the EC50 in experiment [1] (setting [4]) is below 3.3 µM. The IC50 in experiment [2] (setting [5]) was below 3.3 µM.

With `O=C(O)C1C2CCC(CC2)C1Nc1cnnc(-c2n[nH]c3ncc(F)cc23)n1` (racemic) [Compound I-17, (+/−)-trans-3-((3-(5-fluoro-1H-pyrazolo[3,4-b]pyridin-3-yl)-1,2,4-triazin-5-yl)amino)bicyclo[2.2.2]octane-2-carboxylic acid], the EC50 in experiment [1] (setting [4]) was below 3.3 µM. Besides, the IC50 in experiment [2] (setting [5]) is below 3.3 µM.

For the compound `N#Cc1cc(F)c(NC2C3CCC(CC3)C2C(=O)O)cc1-c1n[nH]c2ncc(F)cc12` (racemic) [Compound I-21, (+/−)-trans-3-((4-cyano-2-fluoro-5-(5-fluoro-1H-pyrazolo[3,4-b]pyridin-3-yl)phenyl)amino)bicyclo[2.2.2]octane-2-carboxylic acid], the EC50 in experiment [1] (setting [4]) is below 3.3 µM. For the same compound, the IC50 in experiment [2] (setting [5]) is below 3.3 µM.

Regarding `O=C(O)[C@H]1C2CCC(CC2)[C@@H]1Nc1nc(-c2n[nH]c3ncc(F)cc23)c(F)cc1F` (stereo in doubt) [Compound I-5], the EC50 in experiment [1] (setting [4]) was below 3.3 µM. In addition, the IC50 in experiment [2] (setting [5]) is below 3.3 µM.

For the compound `O=C(O)[C@H]1C2CCC(CC2)[C@@H]1Nc1nc(-c2n[nH]c3ncc(F)cc23)ccc1F` (stereo in doubt) [Compound I-7], in experiment [1] (setting [4]), the EC50 is below 3.3 µM. The IC50 in experiment [2] (setting [5]) was below 3.3 µM.

`CCOC(=O)[C@@H]1CCC[C@H](Nc2nc(-c3n[nH]c4ncc(F)cc34)c(F)cc2F)C1` [Compound I-1, (1R,3S)-ethyl 3-(3,5-difluoro-6-(5-fluoro-1H-pyrazolo[3,4-b]pyridin-3-yl)pyridin-2-ylamino)cyclohexanecarboxylate]: in experiment [1] (setting [4]), the EC50 was below 3.3 µM. Further, in experiment [2] (setting [5]), the IC50 was below 3.3 µM.

As to `O=C(O)[C@@H]1CCC[C@H](Nc2nc(-c3n[nH]c4ncc(F)cc34)c(F)cc2F)C1` [Compound I-2, (1R,3S)-3-(3,5-difluoro-6-(5-fluoro-1H-pyrazolo[3,4-b]pyridin-3-yl)pyridin-2-ylamino)cyclohexanecarboxylic acid], the EC50 in experiment [1] (setting [4]) is below 3.3 µM. The IC50 in experiment [2] (setting [5]) was below 3.3 µM.

As for `Cn1cnc(C(=O)N[C@@H]2CCC[C@H](Nc3nc(-c4n[nH]c5ncc(F)cc45)c(F)cc3F)C2)c1` [Compound I-3, N-((1R,3S)-3-(3,5-difluoro-6-(5-fluoro-1H-pyrazolo[3,4-b]pyridin-3-yl)pyridin-2-ylamino)cyclohexyl)-1-methyl-1H-imidazole-4-carboxamide], the EC50 in experiment [1] (setting [4]) is below 3.3 µM. Moreover, in experiment [2] (setting [5]), the IC50 was below 3.3 µM.

In the case of `O=C(O)[C@H]1C2CCC(CC2)[C@@H]1Nc1nc(-c2n[nH]c3ncc(F)cc23)c(F)cc1F` [Compound I-8, sodium (2S,3S)-3-(3,5-difluoro-6-(5-fluoro-1H-pyrazolo[3,4-b]pyridin-3-yl)pyridin-2-ylamino)bicyclo[2.2.2]octane-2-carboxylate], the EC50 is 0.007 µM in experiment [1] (setting [6]) and below 3.3 µM in experiment [1] (setting [8]). Besides, the IC50 in experiment [2] (setting [7]) was determined as 3.57 µM. Also, the “WBP (Penh; Day 6)” value in experiment [3] (Whole Body Plethysmography, study day 6/7) amounted to 2.03. The “Percent Weight Loss (Day 8)” value in experiment [3] (post challenge day 8) was found to be 20.8%. In addition, the “Percent Survival” value in experiment [3] (survival scored for 21 days) is given as 100%.

For the compound `O=C(O)[C@@H]1C2CCC(CC2)[C@H]1Nc1nc(-c2n[nH]c3ncc(F)cc23)ccc1F` [Compound I-10], in experiment [1] (setting [4]), the EC50 is below 3.3 µM.

For the compound `O=C(O)[C@H]1C2CCC(CC2)[C@@H]1Nc1nc(-c2n[nH]c3ncc(F)cc23)ccc1F` [Compound I-11, (2S,3S)-3-(3-fluoro-6-(5-fluoro-1H-pyrazolo[3,4-b]pyridin-3-yl)pyridin-2-ylamino)bicyclo[2.2.2]octane-2-carboxylic acid], the EC50 in experiment [1] (setting [8]) was below 3.3 µM. Also, the IC50 in experiment [2] (read-out: Flu, MDCK IC50) was below 3.3 µM.

For `O=C(O)[C@@H]1C2CCC(CC2)[C@H]1Nc1cncc(-c2n[nH]c3ncc(F)cc23)n1` [Compound I-13, (2R,3R)-3-((6-(5-fluoro-1H-pyrazolo[3,4-b]pyridin-3-yl)pyrazin-2-yl)amino)bicyclo-[2.2.2]octane-2-carboxylic acid], the EC50 in experiment [1] (setting [4]) was below 3.3 µM. Moreover, the IC50 in experiment [2] (setting [5]) is below 3.3 µM.

With `O=C(O)[C@H]1C2CCC(CC2)[C@@H]1Nc1cncc(-c2n[nH]c3ncc(F)cc23)n1` [Compound I-14, (2S,3S)-3-((6-(5-fluoro-1H-pyrazolo[3,4-b]pyridin-3-yl)pyrazin-2-yl)amino)bicyclo-[2.2.2]octane-2-carboxylic acid], the EC50 in experiment [1] (setting [4]) is below 3.3 µM. In addition, the IC50 in experiment [2] (setting [5]) was below 3.3 µM.

With `N#Cc1cc(F)c(N[C@H]2C3CCC(CC3)[C@@H]2C(=O)O)nc1-c1n[nH]c2ncc(F)cc12` [Compound I-15, (2S,3S)-3-((5-cyano-3-fluoro-6-(5-fluoro-1H-pyrazolo[3,4-b]pyridin-3-yl)pyridin-2-yl)amino)bicyclo[2.2.2]octane-2-carboxylic acid], the EC50 in experiment [1] (setting [4]) was below 3.3 µM. Further, the IC50 in experiment [2] (setting [5]) is below 3.3 µM.

In the case of `N#Cc1cc(F)c(N[C@@H]2C3CCC(CC3)[C@H]2C(=O)O)nc1-c1n[nH]c2ncc(F)cc12` [Compound I-16], in experiment [1] (setting [4]), the EC50 is below 3.3 µM. The IC50 in experiment [2] (setting [5]) was below 3.3 µM.

For the compound `O=C(N[C@@H]1CCC[C@H](Nc2nc(-c3n[nH]c4ncc(F)cc34)c(F)cc2F)C1)c1csc(Cl)c1` [Compound I-18, 5-chloro-N-((1R,3S)-3-((3,5-difluoro-6-(5-fluoro-1H-pyrazolo[3,4-b]pyridin-3-yl)pyridin-2-yl)amino)cyclohexyl)thiophene-3-carboxamide], the EC50 in experiment [1] (setting [4]) was below 3.3 µM. Also, the IC50 in experiment [2] (setting [5]) is below 3.3 µM.

Consider `O=C(N[C@@H]1CCC[C@H](Nc2nc(-c3n[nH]c4ncc(F)cc34)c(F)cc2F)C1)c1ccsc1` [Compound I-19, N-((1R,3S)-3-((3,5-difluoro-6-(5-fluoro-1H-pyrazolo[3,4-b]pyridin-3-yl)pyridin-2-yl)amino)cyclohexyl)thiophene-3-carboxamide], for which the EC50 in experiment [1] (setting [4]) is below 3.3 µM. Further, the IC50 in experiment [2] (setting [5]) was below 3.3 µM.

As for `N#Cc1cc(F)c(N[C@H]2C3CCC(CC3)[C@@H]2C(=O)O)cc1-c1n[nH]c2ncc(F)cc12` [Compound I-20], the EC50 in experiment [1] (setting [8]) is below 3.3 µM. Also, the IC50 in experiment [2] (read-out: Flu, MDCK IC50) was below 3.3 µM.
